Assay results as given in patent US6372723B1, “Compositions and methods for preventing restenosis following revascularization procedures” (Discovery Therapeutics, Inc., priority 1997, dated 2002).

Key:
[1] = test system: rabbits with focal femoral atherosclerosis (arterial stenosis); assay: Restenosis after balloon angioplasty in rabbits with focal femoral atherosclerosis; assay type: in vivo; conditions: rabbit
Protocol: Focal femoral atherosclerosis is induced in rabbits by air desiccation endothelial injury followed by a 2% cholesterol, 6% peanut oil diet for one month. The degree of arterial stenosis is assessed angiographically. At this time, balloon angioplasty is performed using a 2.5 mm balloon, which is inserted into the region of stenosis and inflated with three 60-second, 10-atmosphere inflations 60 seconds apart. This procedure is similar to that used in humans for clearing coronary blood vessels. Rabbits receive an intravenous infusion of 2-cyclohexylmethylenehydrazinoadenosine (0.6 μg/kg/min) or vehicle starting 10 minutes before the angioplasty procedure and continuing for 1 day following angioplasty. Angiograms are performed before and after angioplasty and at 28 days after angioplasty. These angiograms are analyzed quantitatively for decrease of arterial stenosis. Rabbits are sacrificed 28 days following angioplasty and arteries are analyzed histopathologically and morphometrically.
Example 1 is followed, with the exception that one rabbit group is treated with an effective amount of a combination of (±)-N^6-endonorboman-2-yl-9-methyladenine (0.25 mg/kg/min) and 5′-N-ethylcarboxamidoadenosine (6 μg/kg/min) instead of 2-cyclohexylmethylenehydrazinoadenosine. […]

[2] = test system: platelets and neutrophils; assay: In vivo activation of neutrophils and platelets after balloon angioplasty, flow cytometry of coronary sinus blood; set-up: species or system human; conditions: humans, i.v. infusion 0.6 μg/kg/min from 10 min before to 1 day after angioplasty
Protocol: Humans are subjected to balloon angioplasty, and receive either an intravenous infusion of 2-cyclohexylmethylenehydrazinoadenosine (0.6 μg/kg/min) or vehicle starting 10 minutes before the angioplasty procedure and continuing for 1 day following angioplasty. In vivo activation of neutrophils and platelets are measured by taking a blood sample from the coronary sinus and measuring the expression of surface adhesion molecules on platelets and neutrophils by flow cytometry.

[3] = test system: humans with stenotic arteries (restenosis); assay: Incidence of restenosis by angiography six months after balloon angioplasty; assay type: in vivo, human; conditions: i.v. infusion 0.6 μg/kg/min from 10 min before to 1 day after angioplasty
Protocol: Humans afflicted with impaired blood flow due to stenotic arteries are subjected to balloon angioplasty, and receive either an intravenous infusion of 2-cyclohexylmethylenehydrazinoadenosine (0.6 μg/kg/min) or vehicle starting 10 minutes before the angioplasty procedure and continuing for 1 day following angioplasty. Six months following the balloon angioplasty procedure, angiography is performed on these subjects to examine the blood vessel subjected to the angioplasty.

## Cn1cnc2c(N[C@@H]3C[C@@H]4CC[C@H]3C4)ncnc21 (racemic) [(±)-N^6-endonorbornan-2-yl-9-methyladenine, reference compound]
[1]; A1 antagonist alone 0.25 μg/kg/min, as Example 1
  degree of arterial stenosis vs vehicle group: significantly less

## Nc1nc(NN=CC2CCCCC2)nc2c1ncn2[C@@H]1O[C@H](CO)[C@@H](O)[C@H]1O [2-cyclohexylmethylenehydrazinoadenosine]
[2]
  neutrophils that express surface adhesion molecules vs vehicle group: significantly fewer
  platelets that express surface adhesion molecules vs vehicle group: significantly fewer
[3]
  incidence of restenosis vs vehicle group: significantly less
[1]; i.v. infusion 0.6 μg/kg/min from 10 min before to 1 day after angioplasty, assessed 28 days after angioplasty
  degree of arterial stenosis vs vehicle group: significantly less
